Experimental data published in patent US11083725B2 (priority 2014, dated 2021).

Tested on: NHBE cells
Test: Biolog metabolic array: substrate use by NHBE cells with or without CA09 infection
Assay type: cell-based, human
Details: for Substrate use, 590 nm absorbance normalized to zero hour, 0 hr: Biolog PMM2, 0 hr; for Substrate use, 590 nm absorbance normalized to zero hour, 1 hr: Biolog PMM2, 1 hr; for Substrate use, 590 nm absorbance normalized to zero hour, 5 hr: Biolog PMM2, 5 hr; for Substrate use, 590 nm absorbance normalized to zero hour, 7 hr: Biolog PMM2, 7 hr
[1] = Control (uninfected) NHBE cells
[2] = Virus (CA09-infected, MOI 1) NHBE cells
[3] = Virus: CA09-infected NHBE cells, MOI 1, Biolog PMM2
[4] = Virus (CA09-infected NHBE cells, MOI 1)

SMILES | 590 nm absorbance normalized to zero hour (substrate use), 0 hr [1] | 590 nm absorbance normalized to zero hour (substrate use), 1 hr [1] | 590 nm absorbance normalized to zero hour (substrate use), 3 hr [1] | 590 nm absorbance normalized to zero hour (substrate use), 4 hr [1] | 590 nm absorbance normalized to zero hour (substrate use), 6 hr [1] | 590 nm absorbance normalized to zero hour (substrate use), 8 hr [1] | 590 nm absorbance normalized to zero hour (substrate use), 9 hr [1] | 590 nm absorbance normalized to zero hour (substrate use), 10 hr [1] | 590 nm absorbance normalized to zero hour (substrate use), 11 hr [1] | Substrate use, 590 nm absorbance normalized to zero hour, 0 hr [1] | Substrate use, 590 nm absorbance normalized to zero hour, 1 hr [1] | Substrate use, 590 nm absorbance normalized to zero hour, 5 hr [1] | Substrate use, 590 nm absorbance normalized to zero hour, 7 hr [1] | 590 nm absorbance normalized to zero hour (substrate use), 0 hr [3] | 590 nm absorbance normalized to zero hour (substrate use), 1 hr [3] | 590 nm absorbance normalized to zero hour (substrate use), 2 hr [3] | 590 nm absorbance normalized to zero hour (substrate use), 3 hr [3] | 590 nm absorbance normalized to zero hour (substrate use), 4 hr [3] | 590 nm absorbance normalized to zero hour (substrate use), 5 hr [3] | 590 nm absorbance normalized to zero hour (substrate use), 6 hr [3] | other results
NCCCC(=O)O [g-Amino Butyric Acid] | 1.00 | 1.25 | 1.42 | 1.47 | 3.94 | 1.09 | 2.20 | 1.13 | 2.55 | 1.00 | 1.25 | 1.52 | 1.05 | 1.00 | 1.68 | 2.39 | 2.83 | 2.96 | 3.40 | 3.56 | 590 nm absorbance normalized to zero hour (substrate use), 0 hr [2]: 1.00; 590 nm absorbance normalized to zero hour (substrate use), 1 hr [2]: 1.68; 590 nm absorbance normalized to zero hour (substrate use), 2 hr [2]: 2.39; 590 nm absorbance normalized to zero hour (substrate use), 3 hr [2]: 2.83; 590 nm absorbance normalized to zero hour (substrate use), 4 hr [2]: 2.96; 590 nm absorbance normalized to zero hour (substrate use), 5 hr [2]: 3.40; 590 nm absorbance normalized to zero hour (substrate use), 6 hr [2]: 3.56; 590 nm absorbance normalized to zero hour (substrate use), 7 hr [2]: 3.70; 590 nm absorbance normalized to zero hour (substrate use), 8 hr [2]: 3.84; 590 nm absorbance normalized to zero hour (substrate use), 9 hr [2]: 3.99; 590 nm absorbance normalized to zero hour (substrate use), 10 hr [2]: 3.94; 590 nm absorbance normalized to zero hour (substrate use), 11 hr [2]: 3.74; 590 nm absorbance normalized to zero hour (substrate use), 7 hr [3]: 3.70; 590 nm absorbance normalized to zero hour (substrate use), 8 hr [3]: 3.84; 590 nm absorbance normalized to zero hour (substrate use), 9 hr [3]: 3.99; 590 nm absorbance normalized to zero hour (substrate use), 10 hr [3]: 3.94; 590 nm absorbance normalized to zero hour (substrate use), 11 hr [3]: 3.74
O=C(O)CCCO [g-Hydroxy-Butyric Acid] | 1.00 | 1.24 | 1.92 | 1.86 | 0.79 | 1.94 | 2.09 | 2.05 | 2.76 | 1.00 | 1.24 | 1.71 | 1.88 | 1.00 | 0.53 | 0.53 | 0.41 | 0.44 | 0.50 | 0.54 | 590 nm absorbance normalized to zero hour (substrate use), 2 hr [1]: 1.38; 590 nm absorbance normalized to zero hour (substrate use), 0 hr [4]: 1.00; 590 nm absorbance normalized to zero hour (substrate use), 1 hr [4]: 0.53; 590 nm absorbance normalized to zero hour (substrate use), 2 hr [4]: 0.53; 590 nm absorbance normalized to zero hour (substrate use), 3 hr [4]: 0.41; 590 nm absorbance normalized to zero hour (substrate use), 4 hr [4]: 0.44; 590 nm absorbance normalized to zero hour (substrate use), 5 hr [4]: 0.50; 590 nm absorbance normalized to zero hour (substrate use), 6 hr [4]: 0.54; 590 nm absorbance normalized to zero hour (substrate use), 7 hr [4]: 0.56; 590 nm absorbance normalized to zero hour (substrate use), 8 hr [4]: 0.59; 590 nm absorbance normalized to zero hour (substrate use), 9 hr [4]: 0.62; 590 nm absorbance normalized to zero hour (substrate use), 10 hr [4]: 0.63; 590 nm absorbance normalized to zero hour (substrate use), 11 hr [4]: 0.53; 590 nm absorbance normalized to zero hour (substrate use), 7 hr [3]: 0.56; 590 nm absorbance normalized to zero hour (substrate use), 8 hr [3]: 0.59; 590 nm absorbance normalized to zero hour (substrate use), 9 hr [3]: 0.62; 590 nm absorbance normalized to zero hour (substrate use), 10 hr [3]: 0.63; 590 nm absorbance normalized to zero hour (substrate use), 11 hr [3]: 0.53
OC[C@@H](O)[C@@H](O)CO [i-Erythritol] | 1.00 | 1.76 | 2.67 | 2.83 | 5.19 | 3.84 | 4.30 | 4.08 | 4.22 | 1.00 | 1.76 | 3.31 | 3.78 | 1.00 | 0.23 | 0.29 | 0.32 | 0.34 | 0.39 | 0.41 | 590 nm absorbance normalized to zero hour (substrate use), 2 hr [1]: 2.33; 590 nm absorbance normalized to zero hour (substrate use), 0 hr [4]: 1.00; 590 nm absorbance normalized to zero hour (substrate use), 1 hr [4]: 0.23; 590 nm absorbance normalized to zero hour (substrate use), 2 hr [4]: 0.29; 590 nm absorbance normalized to zero hour (substrate use), 3 hr [4]: 0.32; 590 nm absorbance normalized to zero hour (substrate use), 4 hr [4]: 0.34; 590 nm absorbance normalized to zero hour (substrate use), 5 hr [4]: 0.39; 590 nm absorbance normalized to zero hour (substrate use), 6 hr [4]: 0.41; 590 nm absorbance normalized to zero hour (substrate use), 7 hr [4]: 0.43; 590 nm absorbance normalized to zero hour (substrate use), 8 hr [4]: 0.45; 590 nm absorbance normalized to zero hour (substrate use), 9 hr [4]: 0.49; 590 nm absorbance normalized to zero hour (substrate use), 10 hr [4]: 0.50; 590 nm absorbance normalized to zero hour (substrate use), 11 hr [4]: 0.53; 590 nm absorbance normalized to zero hour (substrate use), 7 hr [3]: 0.43; 590 nm absorbance normalized to zero hour (substrate use), 8 hr [3]: 0.45; 590 nm absorbance normalized to zero hour (substrate use), 9 hr [3]: 0.49; 590 nm absorbance normalized to zero hour (substrate use), 10 hr [3]: 0.50; 590 nm absorbance normalized to zero hour (substrate use), 11 hr [3]: 0.53
